Reference: US9809623B2, “α4β7 peptide monomer and dimer antagonists” (Protagonist Therapeutics, Inc., priority 2014, dated 2017)
Numbered stars: 1 amine (or outer) side, 2 acyl side, 3 side chain; on linkers, the order of the positions; unused ones are H or OH. Bridge positions count the residues as written; N and C are the ends. Square brackets hold non-standard residues; d marks the D form. Peptide text beside a SMILES is read from it. I, II: the chains in the order shown. Phe(4-COOH) = N[C@@H](Cc1ccc(C(=O)O)cc1)C(=O)O; Phe(4-tBu) = CC(C)(C)c1ccc(C[C@H](N)C(=O)O)cc1; Bip = N[C@@H](Cc1ccc(-c2ccccc2)cc1)C(=O)O; 1Nal = N[C@@H](Cc1cccc2ccccc12)C(=O)O; Diglycolyl = O=C(COCC(=O)[*:2])[*:1]; NMeR = CN[C@@H](CCCNC(=N)N)C(=O)O; β3hE = N[C@@H](CCC(=O)O)CC(=O)O; NMeK = CN[C@@H](CCCCN)C(=O)O; Pen = CC(C)(S)[C@H](N)C(=O)O; dNMeK = CN[C@H](CCCCN)C(=O)O

The compounds below were run against α4β7 (Homo sapiens, UniProt P13612+P26010) (assay: PBMC Memory T Cell Adhesion Assay, adhesion to MAdCAM-1). Settings: Table 3-B; range classes; read-out: PBMC IC50.
Sequence of α4β7 (Homo sapiens, UniProt P13612+P26010) (P13612 34-1032): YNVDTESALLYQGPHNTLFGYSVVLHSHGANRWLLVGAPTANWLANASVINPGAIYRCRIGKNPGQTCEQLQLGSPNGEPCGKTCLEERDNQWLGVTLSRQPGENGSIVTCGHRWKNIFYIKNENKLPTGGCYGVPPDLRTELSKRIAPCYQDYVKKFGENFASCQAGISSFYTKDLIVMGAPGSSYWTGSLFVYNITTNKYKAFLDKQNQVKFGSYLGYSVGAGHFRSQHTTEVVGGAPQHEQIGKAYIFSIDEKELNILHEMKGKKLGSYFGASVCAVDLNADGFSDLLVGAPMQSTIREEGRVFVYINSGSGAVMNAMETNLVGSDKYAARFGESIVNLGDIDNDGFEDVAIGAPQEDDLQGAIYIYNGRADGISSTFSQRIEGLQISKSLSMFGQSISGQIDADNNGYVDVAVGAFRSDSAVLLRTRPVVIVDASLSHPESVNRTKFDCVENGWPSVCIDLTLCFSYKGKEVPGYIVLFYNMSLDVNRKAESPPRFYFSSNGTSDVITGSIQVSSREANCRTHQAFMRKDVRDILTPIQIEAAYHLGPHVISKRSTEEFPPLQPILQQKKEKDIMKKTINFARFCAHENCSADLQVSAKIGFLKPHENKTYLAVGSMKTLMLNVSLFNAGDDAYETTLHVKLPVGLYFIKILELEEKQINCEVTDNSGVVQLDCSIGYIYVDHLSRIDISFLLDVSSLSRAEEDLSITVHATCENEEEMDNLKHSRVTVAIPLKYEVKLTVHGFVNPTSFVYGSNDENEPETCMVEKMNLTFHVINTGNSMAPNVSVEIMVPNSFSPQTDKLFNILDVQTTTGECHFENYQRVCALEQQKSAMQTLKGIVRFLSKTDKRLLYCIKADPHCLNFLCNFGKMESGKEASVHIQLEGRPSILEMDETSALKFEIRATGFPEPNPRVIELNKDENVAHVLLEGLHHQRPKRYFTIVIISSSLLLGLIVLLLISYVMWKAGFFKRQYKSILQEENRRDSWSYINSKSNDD
Sequence of α4β7 (Homo sapiens, UniProt P13612+P26010) (P26010 20-798): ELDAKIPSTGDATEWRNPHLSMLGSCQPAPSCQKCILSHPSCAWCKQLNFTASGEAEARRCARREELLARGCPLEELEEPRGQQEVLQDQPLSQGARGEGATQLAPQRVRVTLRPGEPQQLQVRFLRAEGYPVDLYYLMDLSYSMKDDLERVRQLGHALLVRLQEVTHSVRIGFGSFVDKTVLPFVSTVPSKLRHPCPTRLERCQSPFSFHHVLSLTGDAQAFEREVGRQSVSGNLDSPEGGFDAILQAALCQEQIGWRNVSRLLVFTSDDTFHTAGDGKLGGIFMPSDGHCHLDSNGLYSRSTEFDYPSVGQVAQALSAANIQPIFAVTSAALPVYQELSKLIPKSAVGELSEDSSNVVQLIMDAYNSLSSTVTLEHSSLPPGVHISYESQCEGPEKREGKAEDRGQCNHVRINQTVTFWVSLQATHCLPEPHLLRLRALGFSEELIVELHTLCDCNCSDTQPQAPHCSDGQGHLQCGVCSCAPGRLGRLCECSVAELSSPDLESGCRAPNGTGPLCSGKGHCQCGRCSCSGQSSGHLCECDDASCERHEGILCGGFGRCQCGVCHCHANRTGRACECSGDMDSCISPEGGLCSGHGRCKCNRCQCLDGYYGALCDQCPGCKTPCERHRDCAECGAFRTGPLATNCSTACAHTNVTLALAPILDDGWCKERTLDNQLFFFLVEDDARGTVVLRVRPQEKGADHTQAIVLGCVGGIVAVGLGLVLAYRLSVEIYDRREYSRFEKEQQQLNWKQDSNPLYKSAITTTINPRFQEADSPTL
Assay type: cell-based
Method: Fresh CD4+/CD45RO+ memory T cells were isolated from human peripheral blood mononuclear cell (PBMC) donors by Aragen Bioscience Inc. (Morgan Hill, Calif.). The assay plate was prepared using IgG Fc capture antibody (donkey anti human) immobilized at 500 ng/well in 50 mM sodium bicarbonate buffer, pH 9.5, ON, 4C onto a Greiner Fluotrac plate (100 ul per well). The plate was rinsed two time with Blocking Buffer (25 mM Tris HCl, pH7.5, 150 mM NaCl, 1.5% BSA, 0.05% Tween), and blocked with Blocking Buffer for 2 hours at 37 C or 5 hours at RT using 200 ul per well. The Blocking Buffer was removed and either MAdCAM-1 or VCAM-1 at 400 ng/well in Blocking Buffer was added and the plate incubated overnight at 4C (100 ul per well). The plate was washed two times with Blocking Buffer, and rinsed once with 200 ul Binding Media (DMEM phenol red free, 10 mM HEPES, 1×Na pyruvate, 1× Glutamine, and supplemented with 1 mM MnCl2 prior to use). To prepare cells, approximately 25 million CD4+/CD45RO+ memory T cells were counted by trypan blue exclusion using a haemocytometer to determine viability and cell count. The cells were transferred to a 50 ml conical tube, and centrifuged at 1200 rpm for 10 minute. The media was aspirated and the cell pellet resuspended in 15 ml Binding Media. The cells were centrifuged again and resuspended in the appropriate amount of Binding Media to be used for assays (50 ul of cells per well at 2× the final density). To each well, and equal volume (50 ul) of test compound was added and the plate was incubated for 1.5 hours at 37 C, 5% CO2. Each well was rinsed 3× with 150 ul per well of Binding Media. […] The plate was incubated at 37 C, 5% CO2, for 45 minutes. The plate was protected from light by using black adhesive seals. Fluorescence intensity was measured using a Molecular Devices Gemini EM Fluorescent Plate Reader (Ex 485/Em530, Bottom Read, Reading Sensitivity=20). IC50 curves are generated using Graph Pad Prism and the curves analyzed using analyzed using a non-linear regression (four parameters) algorithm. The log (concentration) versus RFU (Ex485/Em530) was plotted to determine IC50 values.
With CC(=O)N[C@@H]1C(=O)N(C)[C@@H](CCCNC(=N)N)C(=O)N[C@@H](CO)C(=O)N[C@@H](CC(=O)O)C(=O)N[C@@H]([C@@H](C)O)C(=O)N[C@@H](CC(C)C)C(=O)N[C@H](C(=O)N[C@@H](Cc2ccc(C(=O)O)cc2)C(=O)N[C@@H](CCC(=O)O)C(=O)N[C@H](CCCCNC(=O)COCC(=O)NCCCC[C@@H](NC(=O)[C@H](CCC(=O)O)NC(=O)[C@H](Cc2ccc(C(=O)O)cc2)NC(=O)[C@H]2NC(=O)[C@H](CC(C)C)NC(=O)[C@H]([C@@H](C)O)NC(=O)[C@H](CC(=O)O)NC(=O)[C@H](CO)NC(=O)[C@H](CCCNC(=N)N)N(C)C(=O)[C@@H](NC(C)=O)C(C)(C)SSC2(C)C)C(N)=O)C(N)=O)C(C)(C)SSC1(C)C [compound 129] (I: Ac-[Pen][NMeR]SDTL[Pen][Phe(4-COOH)]E[dK]-NH2 / II: Ac-[Pen][NMeR]SDTL[Pen][Phe(4-COOH)]E[dK]-NH2; disulfide I:1-I:7, II:1-II:7; linker I:10-II:10 via Diglycolyl) the IC50 was under 10 nM.

These compounds were tested against T1, α4β7 (Mus musculus, UniProt P26011+Q00651) (assay: α4β7 Cell Adhesion Assay (Mouse), TK1 cells). Settings: Table 3-B, Potency (α4β7); range classes; read-out: α4β7 cell(MU) IC50.
T1 construct: host or cells: TK1 mouse T cells
T1 sequence (Q00651 34-1039 limits assumed): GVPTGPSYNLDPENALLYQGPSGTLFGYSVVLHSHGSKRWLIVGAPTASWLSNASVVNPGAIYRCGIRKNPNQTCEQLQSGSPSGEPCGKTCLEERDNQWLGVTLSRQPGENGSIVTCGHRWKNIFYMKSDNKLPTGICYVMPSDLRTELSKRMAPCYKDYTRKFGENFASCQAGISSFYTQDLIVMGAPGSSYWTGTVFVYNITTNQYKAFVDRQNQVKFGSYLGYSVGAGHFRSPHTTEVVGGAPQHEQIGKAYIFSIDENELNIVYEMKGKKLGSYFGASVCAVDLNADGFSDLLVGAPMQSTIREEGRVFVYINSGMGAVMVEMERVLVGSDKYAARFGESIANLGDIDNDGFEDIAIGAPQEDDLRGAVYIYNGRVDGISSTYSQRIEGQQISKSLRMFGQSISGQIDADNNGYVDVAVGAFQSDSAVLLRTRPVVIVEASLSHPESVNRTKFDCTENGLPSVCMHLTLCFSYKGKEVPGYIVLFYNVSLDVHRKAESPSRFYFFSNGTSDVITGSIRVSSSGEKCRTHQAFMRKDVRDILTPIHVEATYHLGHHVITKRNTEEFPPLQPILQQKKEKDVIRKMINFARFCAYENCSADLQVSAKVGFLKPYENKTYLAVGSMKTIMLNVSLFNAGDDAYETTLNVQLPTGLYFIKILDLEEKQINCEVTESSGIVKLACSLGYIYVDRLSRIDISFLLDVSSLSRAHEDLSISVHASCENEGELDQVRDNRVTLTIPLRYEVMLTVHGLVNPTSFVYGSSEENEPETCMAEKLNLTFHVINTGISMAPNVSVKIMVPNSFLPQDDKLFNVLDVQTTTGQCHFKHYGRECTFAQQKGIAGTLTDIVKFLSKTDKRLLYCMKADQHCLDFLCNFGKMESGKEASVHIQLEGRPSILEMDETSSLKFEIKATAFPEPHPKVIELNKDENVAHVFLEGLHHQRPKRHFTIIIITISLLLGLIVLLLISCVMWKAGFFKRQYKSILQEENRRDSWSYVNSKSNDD
T1 sequence (P26011 20-806): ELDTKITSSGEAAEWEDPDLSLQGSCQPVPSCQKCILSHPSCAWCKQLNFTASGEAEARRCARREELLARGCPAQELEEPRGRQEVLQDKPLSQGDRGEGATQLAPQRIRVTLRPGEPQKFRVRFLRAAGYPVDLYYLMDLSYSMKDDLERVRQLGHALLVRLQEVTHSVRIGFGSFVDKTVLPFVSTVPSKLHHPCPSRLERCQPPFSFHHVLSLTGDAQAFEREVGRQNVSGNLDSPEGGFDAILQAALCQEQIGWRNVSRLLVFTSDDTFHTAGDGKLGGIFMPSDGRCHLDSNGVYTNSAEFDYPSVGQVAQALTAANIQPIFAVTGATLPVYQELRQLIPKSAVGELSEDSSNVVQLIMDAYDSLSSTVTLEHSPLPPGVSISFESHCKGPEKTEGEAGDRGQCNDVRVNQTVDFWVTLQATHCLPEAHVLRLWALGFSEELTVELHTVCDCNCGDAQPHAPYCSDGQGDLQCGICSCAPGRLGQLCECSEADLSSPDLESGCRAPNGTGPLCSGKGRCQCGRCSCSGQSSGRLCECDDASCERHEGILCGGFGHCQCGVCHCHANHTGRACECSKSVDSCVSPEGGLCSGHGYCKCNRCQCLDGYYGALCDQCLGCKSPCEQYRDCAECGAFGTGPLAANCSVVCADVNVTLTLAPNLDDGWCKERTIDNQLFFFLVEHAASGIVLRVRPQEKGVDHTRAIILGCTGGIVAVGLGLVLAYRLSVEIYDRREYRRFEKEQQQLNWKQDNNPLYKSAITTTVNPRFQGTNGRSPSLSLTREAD
Assay type: cell-based
Method: TK1 cells (ATCC # ATCC-CRL-2396) were cultured in RPMI 1640 with 2 mM L-glutamine adjusted to contain 1.5 g/L sodium bicarbonate, 4.5 g/L glucose, 10 mM HEPES, and 1.0 mM sodium pyruvate (ATCC#30-2001) and supplemented with 0.1 mM non-essential amino acids, (ATCC #30-2116) 0.05 mM 2-mercaptoethanol (Invitrogen #21985) and 10% serum (Fetal Bovine Serum, Invitrogen #16140-071), and Penicillin-Streptomycin (Invitrogen #15140-122) at 100 units of penicillin and 100 μg of streptomycin per ml. The cells were washed two times in DMEM medium (ATCC #30-2002) supplemented with 0.1% BSA, 10 mM HEPES pH 7 and 1 mM MnCl2. The cells were re-suspended in supplemented DMEM medium at a density of 4×10^6 cells/ml.
A Nunc MaxiSorp plate was coated with Recombinant human MAdCAM-1 Fc Chimera (R&D #6065-MC) at 200 ng per well in 100 μl per well in 1×PBS and incubated at 4° C. overnight. The solution was then removed by shaking, blocked with 250 ul per well PBS containing 1% BSA, and incubated at 37° C. for 1 hr. The solution was removed by shaking. DATK 32 (anti-mouse α4β7) and peptides were diluted by serial dilution in a final volume of 50 ul per well (2× concentration). To each well, 50 ul of cells (200,000 cells) are added and the plate is incubated at 37° C., 5% CO2 for 30-45 min to allow cell adhesion. The plate was manually washed three times with supplemented DMEM, 100 ul per wash. After the final wash, 100 ul/well of supplemented DMEM and […] of MTT reagent (ATTC cat#30-1010K) was added to each well. Wells were incubated at 37° C. with 5% CO2 for 2-3 hrs until purple precipitate was visible. 100 μl of Detergent Reagent (ATTC cat#30-1010K) was added to each well. The plate was then wrapped with Para film to prevent evaporation, and left overnight at room temperature in the dark. The plate was shaken for 5 min and the absorbance at 570 nm was measured. To calculate the dose response, the absorbance value of control wells not containing cells was subtracted from each test well.
Compound CC(=O)N[C@@H]1C(=O)N(C)[C@@H](CCCNC(=N)N)C(=O)N[C@@H](CO)C(=O)N[C@@H](CC(=O)O)C(=O)N[C@@H]([C@@H](C)O)C(=O)N[C@@H](CC(C)C)C(=O)N[C@H](C(=O)N[C@@H](Cc2ccc(-c3ccccc3)cc2)C(=O)N[C@@H](CCC(=O)O)CC(=O)N(C)[C@@H](CCCCNC(=O)COCC(=O)NCCCC[C@@H](C(N)=O)N(C)C(=O)C[C@H](CCC(=O)O)NC(=O)[C@H](Cc2ccc(-c3ccccc3)cc2)NC(=O)[C@H]2NC(=O)[C@H](CC(C)C)NC(=O)[C@H]([C@@H](C)O)NC(=O)[C@H](CC(=O)O)NC(=O)[C@H](CO)NC(=O)[C@H](CCCNC(=N)N)N(C)C(=O)[C@@H](NC(C)=O)C(C)(C)SSC2(C)C)C(N)=O)C(C)(C)SSC1(C)C [compound 150] (I: Ac-[Pen][NMeR]SDTL[Pen][Bip][β3hE][NMeK]-NH2 / II: Ac-[Pen][NMeR]SDTL[Pen][Bip][β3hE][NMeK]-NH2; disulfide I:1-I:7, II:1-II:7; linker I:10-II:10 via Diglycolyl) has an IC50 of under 10 nM.
With CC(=O)N[C@@H]1C(=O)N(C)[C@@H](CCCNC(=N)N)C(=O)N[C@@H](CO)C(=O)N[C@@H](CC(=O)O)C(=O)N[C@@H]([C@@H](C)O)C(=O)N[C@@H](CC(C)C)C(=O)N[C@H](C(=O)N[C@@H](Cc2ccc(C(C)(C)C)cc2)C(=O)N[C@@H](CCC(=O)O)CC(=O)N[C@H](CCCCN)C(N)=O)C(C)(C)SSC1(C)C [compound 153] (Ac-[Pen][NMeR]SDTL[Pen][Phe(4-tBu)][β3hE][dK]-NH2; disulfide 1-7) the IC50 was 10 to 25 nM.
With CC(=O)N[C@@H]1C(=O)N(C)[C@@H](CCCNC(=N)N)C(=O)N[C@@H](CO)C(=O)N[C@@H](CC(=O)O)C(=O)N[C@@H]([C@@H](C)O)C(=O)N[C@@H](CC(C)C)C(=O)N[C@H](C(=O)N[C@@H](Cc2c[nH]c3ccccc23)C(=O)N[C@@H](CCC(=O)O)C(=O)N[C@H](CCCCNC(=O)COCC(=O)NCCCC[C@@H](NC(=O)[C@H](CCC(=O)O)NC(=O)[C@H](Cc2c[nH]c3ccccc23)NC(=O)[C@H]2NC(=O)[C@H](CC(C)C)NC(=O)[C@H]([C@@H](C)O)NC(=O)[C@H](CC(=O)O)NC(=O)[C@H](CO)NC(=O)[C@H](CCCNC(=N)N)N(C)C(=O)[C@@H](NC(C)=O)C(C)(C)SSC2(C)C)C(N)=O)C(N)=O)C(C)(C)SSC1(C)C [compound 67] (I: Ac-[Pen][NMeR]SDTL[Pen]WE[dK]-NH2 / II: Ac-[Pen][NMeR]SDTL[Pen]WE[dK]-NH2; disulfide I:1-I:7, II:1-II:7; linker I:10-II:10 via Diglycolyl) the IC50 was under 10 nM.
Compound CC(=O)N[C@@H]1C(=O)N(C)[C@@H](CCCNC(=N)N)C(=O)N[C@@H](CO)C(=O)N[C@@H](CC(=O)O)C(=O)N[C@@H]([C@@H](C)O)C(=O)N[C@@H](CC(C)C)C(=O)N[C@H](C(=O)N[C@@H](Cc2ccc(C(=O)O)cc2)C(=O)N[C@@H](CCC(=O)O)CC(=O)N(C)[C@@H](CCCCNC(=O)COCC(=O)NCCCC[C@@H](C(N)=O)N(C)C(=O)C[C@H](CCC(=O)O)NC(=O)[C@H](Cc2ccc(C(=O)O)cc2)NC(=O)[C@H]2NC(=O)[C@H](CC(C)C)NC(=O)[C@H]([C@@H](C)O)NC(=O)[C@H](CC(=O)O)NC(=O)[C@H](CO)NC(=O)[C@H](CCCNC(=N)N)N(C)C(=O)[C@@H](NC(C)=O)C(C)(C)SSC2(C)C)C(N)=O)C(C)(C)SSC1(C)C [compound 148] (I: Ac-[Pen][NMeR]SDTL[Pen][Phe(4-COOH)][β3hE][NMeK]-NH2 / II: Ac-[Pen][NMeR]SDTL[Pen][Phe(4-COOH)][β3hE][NMeK]-NH2; disulfide I:1-I:7, II:1-II:7; linker I:10-II:10 via Diglycolyl) has an IC50 of under 10 nM.
In the case of CC(=O)N[C@@H]1C(=O)N(C)[C@@H](CCCNC(=N)N)C(=O)N[C@@H](CO)C(=O)N[C@@H](CC(=O)O)C(=O)N[C@@H]([C@@H](C)O)C(=O)N[C@@H](CC(C)C)C(=O)N[C@H](C(=O)N[C@@H](Cc2c[nH]c3ccccc23)C(=O)N[C@@H](CCC(=O)O)C(=O)N[C@H](CCCCNC(=O)COCC(=O)NCCCC[C@@H](NC(=O)[C@H](CCC(=O)O)NC(=O)[C@H](Cc2c[nH]c3ccccc23)NC(=O)[C@H]2NC(=O)[C@H](CC(C)C)NC(=O)[C@H]([C@@H](C)O)NC(=O)[C@H](CC(=O)O)NC(=O)[C@H](CO)NC(=O)[C@H](CCCNC(=N)N)N(C)C(=O)[C@@H](NC(C)=O)C(C)(C)SSC2(C)C)C(=O)O)C(=O)O)C(C)(C)SSC1(C)C [compound 78] (I: Ac-[Pen][NMeR]SDTL[Pen]WE[dK]-OH / II: Ac-[Pen][NMeR]SDTL[Pen]WE[dK]-OH; disulfide I:1-I:7, II:1-II:7; linker I:10-II:10 via Diglycolyl), the IC50 is reported as under 10 nM.
CC(=O)N[C@@H]1C(=O)N(C)[C@@H](CCCNC(=N)N)C(=O)N[C@@H](CO)C(=O)N[C@@H](CC(=O)O)C(=O)N[C@@H]([C@@H](C)O)C(=O)N[C@@H](CC(C)C)C(=O)N[C@H](C(=O)N[C@@H](Cc2cccc3ccccc23)C(=O)N[C@@H](CCC(=O)O)C(=O)N(C)[C@H](CCCCNC(=O)COCC(=O)NCCCC[C@H](C(N)=O)N(C)C(=O)[C@H](CCC(=O)O)NC(=O)[C@H](Cc2cccc3ccccc23)NC(=O)[C@H]2NC(=O)[C@H](CC(C)C)NC(=O)[C@H]([C@@H](C)O)NC(=O)[C@H](CC(=O)O)NC(=O)[C@H](CO)NC(=O)[C@H](CCCNC(=N)N)N(C)C(=O)[C@@H](NC(C)=O)C(C)(C)SSC2(C)C)C(N)=O)C(C)(C)SSC1(C)C [compound 44] (I: Ac-[Pen][NMeR]SDTL[Pen][1Nal]E[dNMeK]-NH2 / II: Ac-[Pen][NMeR]SDTL[Pen][1Nal]E[dNMeK]-NH2; disulfide I:1-I:7, II:1-II:7; linker I:10-II:10 via Diglycolyl) gave an IC50 of under 10 nM.
